Results taken from article PMC5796035 (2017).
Blank lines part the entries; values can stand above or below the molecule they belong to.

Columns and labels:
[1] = tested on: R12.51 (DNA, aptamer) TGTACCGTCTGAGCGATTCGTACAGTTTCTGGAGGACTGGGCGGGGTGACGGTTATGAGCCAGTCAGTGTTAAGGAGTGC; experiment: competitive elution from immobilised fipronil, fluorescence; settings: 100 mM NaCl, 2 mM MgCl2, 20 mM Tris-HCl
[2] = tested on: R12.51 (DNA, aptamer) TGTACCGTCTGAGCGATTCGTACAGTTTCTGGAGGACTGGGCGGGGTGACGGTTATGAGCCAGTCAGTGTTAAGGAGTGC; experiment: plate-based fluorescence saturation binding; settings: 100 mM NaCl, 2 mM MgCl2; immobilised compound (maleic anhydride plate); 20 mM Tris-HCl; mean of four assays (55, 35, 38, 64 nM)

SMILES: N#Cc1nn(-c2c(Cl)cc(C(F)(F)F)cc2Cl)c(N)c1C(F)(F)F
binding ([1]; 1 µM, displaces MRE from immobilised fipronil, fipronil/compound ratio 1.16): yes

SMILES: N#Cc1nn(-c2c(Cl)cc(C(F)(F)F)cc2Cl)c(N)c1S(=O)(=O)C(F)(F)F
binding ([1]; 1 µM, displaces MRE from immobilised fipronil, fipronil/compound ratio 1.07): yes

SMILES: N#Cc1nn(-c2c(Cl)cc(C(F)(F)F)cc2Cl)c(N)c1SC(F)(F)F
binding ([1]; 1 µM, displaces MRE from immobilised fipronil, fipronil/compound ratio 0.89): yes

Second part, the molecule after the results:

binding ([1]; 1 µM, fipronil/compound ratio 1.52 (5.05 at 200 nM in river water/buffer)): weak
SMILES: CCC(=O)Nc1ccc(Cl)c(Cl)c1

binding ([1]; 1 µM, fipronil/compound ratio 1.23 (4.80 at 200 nM in river water/buffer)): weak
SMILES: CCNc1nc(Cl)nc(NC(C)C)n1

binding ([1]; 1 µM, displaces MRE from immobilised fipronil, fipronil/compound ratio 1.10): yes
SMILES: CCS(=O)c1c(C#N)nn(-c2c(Cl)cc(C(F)(F)F)cc2Cl)c1N (centres unmarked)

Kd [2]: 0.048 ± 0.008 µM
binding ([1]; free compound 1 µM, normalized fluorescence 2.413 (no target 0.247)): yes
SMILES: N#Cc1nn(-c2c(Cl)cc(C(F)(F)F)cc2Cl)c(N)c1S(=O)C(F)(F)F (centres unmarked)
